Measured values: patent publication US10189836B2, “Therapeutic compounds, compositions and methods of use thereof” (Genentech, Inc., priority 2015, dated 2019)

Key:
[1] = target: isolated recombinant JAK1 kinase domain (Homo sapiens (Human), UniProt P23458); assay: JAK1 enzyme assay (Caliper LabChip, Ki); assay type: biochemical; conditions: isolated recombinant JAK1 kinase domain, 1.5 nM enzyme, ATP 25 μM
[2] = target: isolated recombinant JAK2 kinase domain (Homo sapiens (Human), UniProt O60674); assay: JAK2 enzyme assay (Caliper LabChip, Ki); assay type: biochemical; conditions: isolated recombinant JAK2 kinase domain, 0.2 nM enzyme, ATP 25 μM
isolated recombinant JAK2 kinase domain, sequence (O60674 849-1124): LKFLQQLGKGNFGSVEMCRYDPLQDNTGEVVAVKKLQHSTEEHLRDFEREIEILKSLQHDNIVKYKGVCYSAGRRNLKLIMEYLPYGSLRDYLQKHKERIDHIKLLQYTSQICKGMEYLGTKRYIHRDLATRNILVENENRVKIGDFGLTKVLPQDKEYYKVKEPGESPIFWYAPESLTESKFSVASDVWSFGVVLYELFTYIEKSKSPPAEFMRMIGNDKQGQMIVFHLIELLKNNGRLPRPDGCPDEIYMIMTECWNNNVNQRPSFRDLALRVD

isolated recombinant JAK1 kinase domain, sequence (P23458 875-1153): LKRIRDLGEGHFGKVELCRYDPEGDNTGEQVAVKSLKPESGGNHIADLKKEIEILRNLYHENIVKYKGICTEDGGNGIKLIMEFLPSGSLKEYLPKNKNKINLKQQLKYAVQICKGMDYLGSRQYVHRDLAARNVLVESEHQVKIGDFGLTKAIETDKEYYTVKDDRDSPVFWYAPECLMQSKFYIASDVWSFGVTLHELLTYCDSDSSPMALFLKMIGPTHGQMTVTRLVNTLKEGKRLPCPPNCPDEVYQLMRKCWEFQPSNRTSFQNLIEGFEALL

Row | Compound | Ki [1] [nM] | Ki [2] [nM]
1 | CN1CCN(C(=O)Cn2cc(Nc3nc4c(N5CC6CCC(C5)N6S(=O)(=O)c5ccc(C(F)(F)F)cc5)cccn4n3)cn2)CC1 [Example 135, 1-(4-methylpiperazin-1-yl)-2-[4-[[8-[8-(4-(trifluoromethyl)phenyl]sulfonyl-3,8-diazabicyclo[3.2.1]octan-3-yl]-[1,2,4]triazolo[1,5-a]pyridin-2-yl]amino]pyrazol-1-yl]ethanone] | 0.2 | 0.4
2 | CN1CCN(C(=O)Cn2cc(Nc3nc4c(N5CC6CCC(C5)N6S(=O)(=O)c5ccc(Cl)cc5F)cccn4n3)cn2)CC1 [Example 136, 2-[4-[[8-[8-(4-chloro-2-fluoro-phenyl)sulfonyl-3,8-diazabicyclo[3.2.1]octan-3-yl]-[1,2,4]triazolo[1,5-a]pyridin-2-yl]amino]pyrazol-1-yl]-1-(4-methylpiperazin-1-yl)ethanone] | 2 | 6.2
3 | CN1CCN(C(=O)Cn2cc(Nc3nc4c(N5CC6CCC(C5)N6Cc5ccccc5F)cccn4n3)cn2)CC1 [Example 137, 2-(4-((8-((1R,5 S)-8-(2-fluorobenzyl)-3,8-diazabicyclo[3.2.1]octan-3-yl)-[1,2,4]triazolo[1,5-a]pyridin-2-yl)amino)-1H-pyrazol-1l-yl)-1-(4-methylpiperazin-1-yl)ethan-1-one] | 1 | 0.7
4 | Cc1ncc(S(=O)(=O)N2C3CCC2CN(c2cccn4nc(Nc5cnn(CC(=O)N6CCN(C)CC6)c5)nc24)C3)s1 [Example 138, 1-(4-methylpiperazin-1-yl)-2-[4-[[8-[8-(2-methylthiazol-5-yl)sulfonyl-3,8-diazabicyclo[3.2.1]octan-3-yl]-[1,2,4]triazolo[1,5-a]pyridin-2-yl]amino]pyrazol-1-yl]ethanone] | 0.7 | 0.8
5 | Cc1cc(S(=O)(=O)N2C3CCC2CN(c2cccn4nc(Nc5cnn(CC(=O)N6CCN(C)CC6)c5)nc24)C3)sn1 [Example 139, 2-[4-[[8-[8-(3-yl)sulfonyl-3,8-diazabicyclo[3.2.1]octan-3-yl]-[1,2,4]triazolo[1,5-a]pyridin-2-yl]amino]pyrazol-1-yl]-1-(4-methylpiperazin-1-yl)ethanone] | 0.8 | 0.6
6 | CN1CCN(C(=O)Cn2cc(Nc3nc4c(N5CC6CCC(C5)N6C(=O)c5ccccc5C#N)cccn4n3)cn2)CC1 [Example 140, 2-[3-[2-[[1-[2-(4-methylpiperazin-1-yl)-2-oxo-ethyl]pyrazol-4-yl]amino]-[1,2,4]triazolo[1,5-a]pyridin-8-yl]-3,8-diazabicyclo[3.2.1]octane-8-carbonyl]benzonitrile] | 0.4 | 0.8
7 | CN1CCN(C(=O)Cn2cc(Nc3nc4c(N5CC6CCC(C5)N6C(=O)N5CC(O)(C(F)(F)F)C5)cccn4n3)cn2)CC1 [Example 141, 2-[4-[[8-[8-[3-hydroxy-3-(trifluoromethyl)azetidine-1-carbonyl]-3,8-diazabicyclo[3.2.1]octan-3-yl]-[1,2,4]triazolo[1,5-a]pyridin-2-yl]amino]pyrazol-1-yl]-1-(4-methylpiperazin-1-yl)ethanone] | 0.2 | 0.3
8 | CN1CCN(C(=O)Cn2cc(Nc3nc4c(N5C[C@H]6CC[C@@H](C5)[C@H]6OCc5ccccc5C#N)cccn4n3)cn2)CC1 [Example 142, 2-[[rac-(1S,5R)-3-[2-[[1-[2-(4-methylpiperazin-1-yl)-2-oxo-ethyl]pyrazol-4-yl]amino]-[1,2,4]triazolo[1,5-a]pyridin-8-yl]-3-azabicyclo[3.2.1]octan-8-yl]oxymethyl]benzonitrile] | 0.7 | 1.7
9 | CN1CCN(C(=O)Cn2cc(Nc3nc4c(N5CC6CCC(C5)N6S(=O)(=O)c5cccc(C#N)c5)cccn4n3)cn2)CC1 [Example 143, 3-[[3-[2-[[1-[2-(4-methylpiperazin-1-yl)-2-oxo-ethyl]pyraol-4-yl]amino]-[1,2,4]triazolo[1,5-a]pyridin-8-yl]-3,8-diazabicyclo[3.2.1]octan-8-yl]sulfonyl]benzonitrile] | 0.5 | 1.1
10 | COC1(C(F)(F)F)CN(C(=O)N2C3CCC2CN(c2cccn4nc(Nc5cnn(CC(=O)N6CCN(C)CC6)c5)nc24)C3)C1 [Example 146, 2-[4-[[8-[8-[3-methoxy-3-(trifluoromethyl)azetidine-1-carbonyl]-3,8-diazabicyclo[3.2.1]octan-3-yl]-[1,2,4]triazolo[1,5-a]pyridin-2-yl]amino]pyrazol-1-yl]-1-(4-methylpiperazin-1-yl)ethanone] | 6.1 | 6.1
11 | CN1CCN(C(=O)Cn2cc(Nc3nc4c(N5CC6CCC(C5)N6S(=O)(=O)c5ccccc5C#N)cccn4n3)cn2)CC1 [Example 147, 2-[[3-[2-[[1-[2-(4-methylpiperazin-1-yl)-2-oxo-ethyl]pyrazol-4-yl]amino]-[1,2,4]triazolo[1,5-a]pyridin-8-yl]-3,8-diazabicyclo[3.2.1]octan-8-yl]sulfonyl]benzonitrile] | 0.4 | 0.3
12 | CN1CCN(C(=O)Cn2cc(Nc3nc4c(N5CC6CCC(C5)N6S(=O)(=O)c5ccccc5C(F)(F)F)cccn4n3)cn2)CC1 [Example 148, 1-(4-methylpiperazin-1-yl)-2-[4-[[8-[8-(2-(trifluoromethyl)phenyl]sulfonyl-3,8-diazabicyclo[3.2.1]octan-3-yl]-[1,2,4]triazolo[1,5-a]pyridin-2-yl]amino]pyrazol-1-yl]ethanone] | 1.9 | 3.1
13 | CN1CCN(C(=O)Cn2cc(Nc3nc4c(N5CC6CCC(C5)N6S(=O)(=O)c5ccc(C#N)cc5)cccn4n3)cn2)CC1 [Example 149, 4-[3-[2-([1-[2-(4-methylpiperazin-1-yl)-2-oxoethyl]-1H-pyrazol-4-yl]amino)-[1,2,4]triazolo[1,5-a]pyridin-8-yl]-3,8-diazabicyclo[3.2.1]octane-8-sulfonyl]benzonitrile] | 1.1 | 2
14 | CN1CCN(C(=O)Cn2cc(Nc3nc4c(N5CC6CCC(C5)N6S(=O)(=O)c5ccccc5F)cccn4n3)cn2)CC1 [Example 150, 2-[4-[[8-[8-(2-fluorophenyl)sulfonyl-3,8-diazabicyclo[3.2.1]octan-3-yl]-[1,2,4]triazolo[1,5-a]pyridin-2-yl]amino]pyrazol-1-yl]-1-(4-methylpiperazin-1-yl)ethanone] | 0.7 | 1.5
15 | O=C(Cn1cc(Nc2nc3c(N4CC5CCC(C4)N5C(=O)CCC(F)(F)F)cccn3n2)cn1)N1CCN(C2CCC2)CC1 [Example 152, 1-[3-[2-[[1-[2-(4-cyclobutylpiperazin-1-yl)-2-oxo-ethyl]pyrazol-4-yl]amino]-[1,2,4]triazolo[1,5-a]pyridin-8-yl]-3,8-diazabicyclo[3.2.1]octan-8-yl]-4,4,4-trifluoro-butan-1-one] | 0.6 | 1.7
16 | O=C(Cn1cc(Nc2nc3c(N4CC5CCC(C4)N5C(=O)CCC(F)(F)F)cccn3n2)cn1)N1CCN(C2CCCCC2)CC1 [Example 153, 1-[3-[2-[[1-[2-(4-cyclohexylpiperazin-1-yl)-2-oxo-ethyl]pyrazol-4-yl]amino]-[1,2,4]triazolo[1,5-a]pyridin-8-yl]-3,8-diazabicyclo[3.2.1]octan-8-yl]-4,4,4-trifluoro-butan-1-one] | 0.2 | 0.3
17 | CN1CCN(C(=O)Cn2cc(Nc3nc4c(N5CC6CCC(C5)N6C(=O)CC(O)C(F)(F)F)cccn4n3)cn2)CC1 (centres unmarked) [Example 154, 4,4,4-trifluoro-3-hydroxy-1-[3-[2-[[1-[2-(4-methylpiperazin-1-yl)-2-oxo-ethyl]pyrazol-4-yl]amino]-[1,2,4]triazolo[1,5-a]pyridin-8-yl]-3,8-diazabicyclo[3.2.1]octan-8-yl]butan-1-one] | 0.5 | 0.9
18 | CN1CCN(C(=O)Cn2cc(Nc3nc4c(N5CC6CCC(C5)N6S(=O)(=O)c5cccc(F)c5)cccn4n3)cn2)CC1 [Example 156, 2-[4-[[8-[8-(3-fluorophenyl)sulfonyl-3,8-diazabicyclo[3.2.1]octan-3-yl]-[1,2,4]triazolo[1,5-a]pyridin-2-yl]amino]pyrazol-1-yl]-1-(4-methylpiperazin-1-yl)ethanone] | 1.3 | 3.7
19 | CN1CCN(C(=O)Cn2cc(Nc3nc4c(N5CC6CCC(C5)N6C(=O)c5ccsc5)cccn4n3)cn2)CC1 [Example 157, 1-(4-methylpiperazin-1-yl)-2-[4-[[8-[8-(thiophene-3-carbonyl)-3,8-diazabicyclo[3.2.1]octan-3-yl]-[1,2,4]triazolo[1,5-a]pyridin-2-yl]amino]pyrazol-1-yl]ethanone] | 0.4 | 1.4
20 | CN1CCN(C(=O)Cn2cc(Nc3nc4c(N5CC6CCC(C5)N6S(=O)(=O)Cc5ccccc5F)cccn4n3)cn2)CC1 [Example 158, 2-[4-[[8-[8-[(2-fluorophenyl)methylsulfonyl]-3,8-diazabicyclo[3.2.1]octan-3-yl]-[1,2,4]triazolo[1,5-a]pyridin-2-yl]amino]pyrazol-1-yl]-1-(4-methylpiperazin-1-yl)ethanone] | 0.9 | 2.8
21 | CN1CCN(C(=O)Cn2cc(Nc3nc4c(N5CC6CCC(C5)N6S(=O)(=O)Cc5cccc(F)c5)cccn4n3)cn2)CC1 [Example 159, 2-[4-[[8-[8-[(3-fluorophenyl)methylsulfonyl]-3,8-diazabicyclo[3.2.1]octan-3-yl]-[1,2,4]triazolo[1,5-a]pyridin-2-yl]amino]pyrazol-1-yl]-1-(4-methylpiperazin-1-yl)ethanone] | 0.7 | 2.9
22 | CN1CCN(C(=O)Cn2cc(Nc3nc4c(N5CC6CCC(C5)N6S(=O)(=O)Cc5ccc(F)cc5)cccn4n3)cn2)CC1 [Example 160, 2-[4-[[8-[8-[(4-fluorophenyl)methylsulfonyl]-3,8-diazabicyclo[3.2.1]octan-3-yl]-[1,2,4]triazolo[1,5-a]pyridin-2-yl]amino]pyrazol-1-yl]-1-(4-methylpiperazin-1-yl)ethanone] | 0.6 | 0.9
